Structures can show the parent of a compound that is named as a salt.
What was measured:
R28 cells [1] = assay: immunofluorescence imaging of cells incubated with imaging agent; format: cell-based, rat; conditions: 100 μM, 4 h
Experimental: FIG. 2A-2F. R28 retinal neuronal cell lines conditioned under normoxic or hypoxic (4 h) conditions were incubated with 100 μM HYPOX-2 followed by fixation and immunostaining with an antibody specific for pimonidazole adducts in hypoxic cells.
Immunofluorescence analysis of cells was performed by seeding R28 cells at a density of 15,000 cells per well of 8-well chamber slides. When 90% confluent, cells were treated with either imaging agent and pimonidazole hydrochloride or imaging agent only, diluted in complete media, and placed in hypoxia or normoxia for 4 h. Cells were washed 4 times in HBSS, fixed for 10 min with 10% neutral buffered formalin at room temperature, washed 3 times with tris buffered saline and mounted with Prolong Gold with DAPI mounting media.
(§1) Imaging of R28 cells incubated with the hypoxia-sensitive imaging agents further confirmed specificity and mechanism of action.

R28 cells [2] = assay: BrdU cell proliferation assay (in vitro toxicity); format: cell-based, rat; conditions: up to 100 μM, 24 h
Experimental: FIG. 3A-3B. […] (n=4), p<0.01.
For in vitro toxicity studies, a BrdU cell proliferation assay was performed on R28 cells. The assay was performed according to the manufacturer's protocol with the following specifications. Cells were seeded at 2000 cells/well in a 96-well plate. 24 h after seeding, the cells were serum starved for 6 h. Imaging agents and vehicle controls diluted in complete media were added and allowed to incubate for 24 h. 4 h prior to the end of the incubation, BrdU was added at a concentration of 10 μM.
Both imaging agents were not acutely toxic to retinal cells as assessed by BrdU cell proliferation assays (FIG. 3).

[3] = test system: primary human Müller cells; assay: in vitro imaging agent uptake assay (microplate fluorescence spectrophotometric assay); format: cell-based; conditions: for increase in hypoxic/normoxic fluorescence intensity ratio: 100 μM; for increase in hypoxic/normoxic fluorescence intensity ratio / dose dependence of fluorescence in hypoxic cells: 12 h hypoxia; for dose dependence of fluorescence in hypoxic cells: Müller cells, n=8
Experimental: (§2) Primary human Müller cells and R28 cell line were grown in low glucose DMEM supplemented with 10% Fetal Bovine Serum, 1× GlutaMAX, and 1× Penicillin-Streptomycin. All cells were maintained in a humidified environment with 5% CO2 at 37° C. unless otherwise noted. For hypoxia induction, assay plates were placed into a humidified chamber and ambient air was displaced with a mixture of 5% CO2 and 95% N2 at a flow rate of 20 L/min for 5 min according to manufacturer instructions and published methods (28). The chamber was clamped and placed at 37° C. for the remainder of the time point. R28 cells were treated with 100 μM pimonidazole hydrochloride diluted in complete media and subjected to hypoxia or normoxia for 4 h.
(§3) To perform in vitro imaging agent uptake assays, R28 cells or primary human Müller cells were seeded at a density of 15,000 cells per well in a 96-well black plate with clear bottom. When 90% confluent, assay plates were either place in hypoxia or kept in normoxia for 12 h. They were treated with imaging agents diluted in complete media and returned to hypoxia or kept in normoxia for 30 min. They were washed 4 times with pre-warmed Hank's Buffered Salt Solution (HBSS), kept in normoxia for 1 h, then washed 4 more times in HBSS. Fluorescence intensity was read ([…]: 490 nm, Emission: 520 nm) using a Synergy Mx Plate Reader from Biotek.
(§4) In order to measure the specificity of HYPOX-1 and HYPOX-2 for hypoxic retinal tissues in vitro, R28 rat retinal neuronal (17, 18) or primary human Müller cells (19) were conditioned in a hypoxic chamber purged with a mixture of nitrogen/carbon dioxide up to 12 h. These two cell lines model predominant oxygen-sensitive cell types in retinal diseases with a hypoxia-ischemia component (20). […] The micromolar doses of HYPOX-1 and HYPOX-2 used in these experiments are modeled on doses used to achieve optimal signal to background ratios using pimonidazole immunohistochemistry (21).

[4] = test system: R28 rat retinal neuronal cells; assay: as above; format: cell-based; conditions: for dose dependence of fluorescence in hypoxic cells: 12 h hypoxia, n=8
Experimental: as §2, §3, §4

[5] = test system: Human Retinal Microvascular Endothelial Cells (HRMEC); assay: Western analysis of cell lysates with anti-Hypoxyprobe antibody; format: cell-based; conditions: 100 μM, 4 h, hypoxic vs normoxic HRMEC
Experimental: FIG. 2G. HYPOX-1 accumulation in hypoxic retinal cells occur through nitroimidazole adduct formation. Human Retinal Microvascular Endothelial Cells (HRMEC) were treated with 100 μM HYPOX-1 under normoxic or hypoxic conditions for 4 h. Cell lysates were probed with an anti-Hypoxyprobe antibody by Western analysis.
as §1

[6] = test system: avascular hypoxic retina of OIR mice; assay: mouse model of oxygen induced retinopathy (OIR), ex vivo imaging of retinal flatmounts; format: in vivo
Source text: FIG. 4A-4F. […] FIGS. 4(A) and 4(C) HYPOX-1 in P13 OIR mouse retina. FIGS. 4(B) and 4(D) Pimonidazole immunostaining colocalizes with HYPOX-1 region. […] FIG. 5. Retinal flatmounts from OIR mice intravenously injected with HYPOX-1 (green) were stained with endothelial cell marker, ICAM-2 (red). Accumulation of HYPOX-1 is observed in avascular retina. The mouse model of oxygen induced retinopathy (OIR) was selected as a mouse model for hypoxia and generated as published (24). Briefly, litters with 6 to 8 pups were placed into a 75% oxygen chamber with dams from P7-P12. On P12, pups were removed from the hyperoxic environment to room air. Imaging agents, vehicle controls and dye controls were intravitreally injected (3 μg in 1 μL injection volume) or intravenously injected via tail vein (60 mg/kg) 6 h after removal from hyperoxic environment. Pimonidazole hydrochloride (Hypoxyprobe Inc.) was injected intraperitoneally at a concentration of 60 mg/kg body weight. Immunofluorescence analysis of retinal tissues was performed by dissecting retinas from ocular tissues and fixing them in 10% neutral buffered formalin for 2 h. Tissues were then rinsed in Tris buffered saline and blocked/permeabilized in 10% donkey serum with 1% Triton X-100/0.05% Tween 20 in TBS for 6 h. Retinas were then stained for ICAM-2 and Hypoxyprobe followed by secondary antibody staining as indicated. […] Staining of excised retinas with ICAM-2 was used to identify retinal vasculature and its association with HYPOX staining. […] In addition, HYPOX accumulation in retinal tissue can be accomplished through intraocular or intravenous injection routes.

R28 cells [7] = assay: Hypoxyprobe adduct immunostaining of normoxia- or hypoxia-conditioned cells; format: cell-based, rat; conditions: 100 μM
Experimental: as §2, with “FIG. 1A. R28 cells were treated with 100 μM pimonidazole hydrochloride (Hypoxyprobe) and subjected to normoxia or hypoxia-conditioning for 4 h, followed by Hypoxyprobe adduct immunostaining. […] Primary” for “Primary”, “h. In order to measure the specificity of HYPOX-1 and HYPOX-2 for hypoxic retinal tissues in vitro, R28 rat retinal neuronal (17, 18) or primary human Müller cells (19) were conditioned in a hypoxic chamber purged with a mixture of nitrogen/carbon dioxide up to 12 h. These two cell lines model predominant oxygen-sensitive cell types in retinal diseases with a hypoxia-ischemia component (20). […]” for “h.”

O=C1OC2(c3ccc(O)cc3Oc3cc(O)ccc32)c2ccc(NC(=S)NCC3CCN(CC(O)Cn4ccnc4[N+](=O)[O-])CC3)cc21 (stereo not drawn) [HYPOX-2]
pimonidazole adducts by adduct-specific antibody (R28 cells [1]; hypoxic R28 cells, but not normoxic cells): positive for pimonidazole adducts
accumulation in cells (fluorescence imaging) (R28 cells [1]; hypoxic vs normoxic R28 cells): accumulated in hypoxic cells but not normoxic cells
cell proliferation (BrdU incorporation) (R28 cells [2]): no significant decrease in cell proliferation
greater fluorescence intensity in hypoxia-conditioned cells ([3]; 10 μM, human Müller cells): 32 fold
increase in hypoxic/normoxic fluorescence intensity ratio ([3]; human Müller cells): 11 fold
dose dependence of fluorescence in hypoxic cells [3]: dose-dependent fluorescence enhancement
fluorescence intensity of hypoxia-conditioned vs normoxia-conditioned cells ([3]; human Müller cells): significantly higher fluorescence intensity
fluorescence intensity of hypoxia-conditioned vs normoxia-conditioned cells [4]: significantly higher fluorescence intensity
dose dependence of fluorescence in hypoxic cells [4]: dose-dependent fluorescence enhancement

O=C1OC2(c3ccc(O)cc3Oc3cc(O)ccc32)c2ccc(NC(=S)NCCCCCn3ccnc3[N+](=O)[O-])cc21 [HYPOX-1]
nitroimidazole adduct formation (Western) [5]: Adduct formation was increased in hypoxic cells
cell proliferation (BrdU incorporation) (R28 cells [2]): no significant decrease in cell proliferation
increase in hypoxic/normoxic fluorescence intensity ratio ([3]; human Müller cells): 5 fold
dose dependence of fluorescence in hypoxic cells [3]: dose-dependent fluorescence enhancement
detectability of probe ([3]; concentrations lower than 50 μM): not detectable
fluorescence intensity of hypoxia-conditioned vs normoxia-conditioned cells ([3]; human Müller cells): significantly higher fluorescence intensity
fluorescence intensity of hypoxia-conditioned vs normoxia-conditioned cells [4]: significantly higher fluorescence intensity
dose dependence of fluorescence in hypoxic cells [4]: dose-dependent fluorescence enhancement
accumulation in retina, intraocularly injected ([6]; OIR mice P13, intravitreal 3 μg, retinal flatmounts): accumulation of intraocularly-injected HYPOX-1 in central avascular retinas
accumulation in retina, intravenously injected ([6]; OIR mice, tail vein 60 mg/kg, ICAM-2 co-staining): accumulated in avascular regions
accumulation in retina of age matched control mice ([6]; room air control mice with fully vascularized retinas): did not accumulate

O=[N+]([O-])c1nccn1CC(O)CN1CCCCC1 (stereo not drawn) [pimonidazole hydrochloride, reference compound]
Hypoxyprobe adduct immunostaining, hypoxia-conditioned cells (R28 cells [7]; 4 h hypoxia): positive staining
Hypoxyprobe adduct immunostaining, normoxia-conditioned cells (R28 cells [7]; 4 h normoxia): minimal fluorescence
Hypoxyprobe immunostaining of central avascular retina ([6]; OIR mice, intraperitoneal 60 mg/kg): positive immunostaining
accumulation in retina of room air mice (Hypoxyprobe staining) ([6]; room air mice): no pimonidazole accumulation

— US10076578B2, “Probes for imaging of hypoxia” (Vanderbilt University, priority 2014, dated 2018)
